Measurements taken from PubChem BioAssay AID493137 (Sanford-Burnham Center for Chemical Genomics, 2011).
“And” between values parts separate entries of the source, which are not always exact repeats. Identical values can stand only once. The source made the active and inactive calls.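 How the source made its calls: active means compounds whose mean IC50 is under 100 micromolar in the phosphatase inhibition dose series; inactive means the rest.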

Biological target: Intestinal-type alkaline phosphatase (Homo sapiens) (UniProt P09923)
Sequence (P09923 whole entry, looked up): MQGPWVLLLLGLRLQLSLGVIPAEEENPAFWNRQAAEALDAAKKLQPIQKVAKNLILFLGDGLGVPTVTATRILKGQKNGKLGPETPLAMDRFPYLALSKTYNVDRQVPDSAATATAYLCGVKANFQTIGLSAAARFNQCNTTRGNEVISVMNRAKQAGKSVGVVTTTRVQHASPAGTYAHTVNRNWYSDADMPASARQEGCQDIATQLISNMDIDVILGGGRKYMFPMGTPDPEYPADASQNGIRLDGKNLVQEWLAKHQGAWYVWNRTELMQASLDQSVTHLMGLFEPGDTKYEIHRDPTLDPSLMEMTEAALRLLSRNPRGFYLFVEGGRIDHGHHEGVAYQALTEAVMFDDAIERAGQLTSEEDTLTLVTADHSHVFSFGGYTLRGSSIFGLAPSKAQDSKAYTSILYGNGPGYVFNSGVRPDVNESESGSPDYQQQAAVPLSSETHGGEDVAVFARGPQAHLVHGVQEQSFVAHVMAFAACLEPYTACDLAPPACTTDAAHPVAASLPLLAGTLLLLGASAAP
Assay: human IAP inhibitors, SAR follow-up, biochemical, luminescence (AID 493137)
Conditions: purified human IAP, CDP-Star luminescence, 30 min

| Structure (SMILES) | IC50 |
| --- | --- |
| COC(=O)/C=C1/S/C(=N/NC(=O)c2ccccc2)NC1=O | > 100 µM (inactive) |
| Cc1cc(C)cc(Nc2nc(-c3ccc(O)cc3O)cs2)c1 | > 100 µM (inactive) |
| COc1ccc(Cl)cc1Nc1nc(-c2ccc(O)c(O)c2)cs1 | > 100 µM (inactive) |
| COC(=O)/C=C1/S/C(=N/N=Cc2ccc(N(C)C)cc2)NC1=O | > 100 µM (inactive) |
| COC(=O)/C=C1\S/C(=N/N=C/CC(=O)OC)NC1=O | > 100 µM (inactive) |
| O=[N+]([O-])c1ccc(NC(=S)NCCC(c2ccccc2)c2ccccc2)cc1 | > 100 µM (inactive) |
| COc1ccc(-c2csc(Nc3cccc4ccccc34)n2)cc1F | > 100 µM (inactive) |
| COC(=O)/C=C1/S/C(=N/NC(=O)c2ccccc2C)NC1=O | > 100 µM (inactive) |
| Cc1cc(=O)oc2cc(NC(=S)NCCC(c3ccccc3)c3ccccc3)ccc12 | > 100 µM (inactive) |
| Cc1ccc2sc(NNC(=O)c3ccc4c(c3)OCCO4)nc2c1C | > 100 µM (inactive) |
| COC(=O)C/C=N/N=C1\NC(=O)/C(=C/C(=O)O)S1 | > 100 µM (inactive) |
| COc1cc(/C=N/N=C2\NC(=O)C(CC(=O)O)S2)cc(OC)c1OC (stereo unspecified) | > 100 µM (inactive) |
| Cc1cccc(Nc2nc(-c3ccc(O)c(C(N)=O)c3)cs2)c1 | > 100 µM (inactive) |
| Oc1ccc(-c2csc(Nc3cccc4ccccc34)n2)cc1O | 33 µM and 46.8 µM |
| CC(C)(C)c1ccc(/C=N/N=C2\NC(=O)C(CC(=O)O)S2)cc1 (stereo unspecified) | > 100 µM (inactive) |
| COc1ccc(-c2csc(Nc3cccc4ccccc34)n2)cc1 | > 100 µM (inactive) |
| CCOc1cc(C=N/N=C2/NC(=O)C(CC(=O)O)S2)ccc1OCc1ccccc1Cl (stereo unspecified) | > 100 µM (inactive) |
| S=C(NCCC(c1ccccc1)c1ccccc1)Nc1ccc(Cl)cc1Cl | > 100 µM (inactive) |
| COc1ccc(C=NN=C2SC(CC(=O)O)C(=O)N2c2ccc(O)cc2)cc1 (stereo unspecified) | > 100 µM (inactive) |
| COC(=O)/C=C1/S/C(=N/NC(=O)c2ccccc2OC)NC1=O | > 100 µM (inactive) |
| COC(=O)/C=C1/S/C(=N/NC(=O)c2ccc(OC)cc2)NC1=O | > 100 µM (inactive) |
| COC(=O)/C=C1\S/C(=N/N=C/c2ccc(Cl)cc2)NC1=O | > 100 µM (inactive) |

| Structure (SMILES) | IC50 |
| --- | --- |
| CCc1ccccc1Nc1nc(-c2ccc(O)c(O)c2)cs1 | 17.8 µM and 14.5 µM |
| CCOc1cc(/C=N/N=C2\NC(=O)C(CC(=O)O)S2)ccc1O (stereo unspecified) | > 100 µM (inactive) |
| COc1ccc(NC(=S)NCCC(c2ccccc2)c2ccccc2)cc1 | > 100 µM (inactive) |
| Cc1ccc(C)c(Nc2nc(-c3ccc(O)cc3O)cs2)c1 | > 100 µM (inactive) |
| COC(=O)/C=C1\SC(N=Nc2c(O)[nH]c3ccccc23)=NC1=O | > 100 µM (inactive) |
| Cc1ccc2nc(NNC(=O)c3ccc4c(c3)OCCO4)sc2c1 | > 100 µM (inactive) |
| COc1ccc(C(=O)NNC(=S)NC2CCCCC2)cc1OC | > 100 µM (inactive) |
| COC(=O)/C=C1/S/C(=N/NC(=O)c2ccc(Cl)cc2Cl)NC1=O | > 100 µM (inactive) |
| COc1cccc(Nc2nc(-c3ccc(O)cc3)cs2)c1 | > 100 µM (inactive) |
| COc1cc([N+](=O)[O-])ccc1NC(=S)NNC(=O)c1ccc2c(c1)OCO2 | > 100 µM (inactive) |
| Cc1ccc(-c2ccc(/C=N/N=C3\NC(=O)C(CC(=O)O)S3)o2)c([N+](=O)[O-])c1 (stereo unspecified) | > 100 µM (inactive) |
| CCN(CC)S(=O)(=O)c1ccc(-c2csc(=Nc3cccc4ccccc34)n2C)cc1 | > 100 µM (inactive) |
| FC(F)(F)c1cccc(NC(=S)NCCC(c2ccccc2)c2ccccc2)c1 | > 100 µM (inactive) |
| O=C(O)CC1S/C(=N/N=C/c2ccco2)NC1=O (stereo unspecified) | > 100 µM (inactive) |
| Cc1ccc(Cl)cc1Nc1nc(-c2ccc(O)c(O)c2)cs1 | 24.4 µM |
| COc1cc([N+](=O)[O-])ccc1NC(=S)NCCC(c1ccccc1)c1ccccc1 | > 100 µM (inactive) |
| COc1ccc(/C=N/N=C2/NC(=O)C(CC(=O)O)S2)cc1OC (stereo unspecified) | > 100 µM (inactive) |
| COc1ccc(/C=N/N=C2\NC(=O)C(CC(=O)O)S2)c(OC)c1 (stereo unspecified) | > 100 µM (inactive) |
| N#CCCn1cc(/C=N/N=C2/NC(=O)C(CC(=O)O)S2)c(-c2ccc(F)cc2)n1 (stereo unspecified) | > 100 µM (inactive) |
| Oc1ccc(-c2csc(Nc3ccccc3)n2)c(O)c1 | > 100 µM (inactive) |
| COc1ccc(C=Nn2c(=S)n(C)c3ccccc32)cc1OC | > 100 µM (inactive) |
| Cc1cccc2sc(NNC(=O)c3ccc4c(c3)OCCO4)nc12 | > 100 µM (inactive) |

Second part, the compound after the results:

| IC50 | Structure (SMILES) |
| --- | --- |
| > 100 µM (inactive) | CN(C)S(=O)(=O)c1cccc(NC(=S)NN=Cc2ccc(O)c(O)c2O)c1 |
| > 100 µM (inactive) | COc1cc(C(=O)NNC(=S)Nc2ccc(S(N)(=O)=O)cc2)cc(OC)c1OC |
| > 100 µM (inactive) | Cc1cccc(NC(=S)NNC(=O)c2ccc3c(c2)OCO3)c1 |
| > 100 µM (inactive) | Cc1ccc(Nc2nc(-c3ccc(O)c(O)c3)cs2)cc1 |
| > 100 µM (inactive) | Cc1ccc(Nc2nc(-c3ccc(O)c(C(N)=O)c3)cs2)cc1 |
| > 100 µM (inactive) | COc1cc(C=NNC(=S)Nc2cccc(C(=O)O)c2)ccc1O |
| > 100 µM (inactive) | NS(=O)(=O)c1ccc(Nc2nc(-c3ccc(O)cc3O)cs2)cc1 |
| > 100 µM (inactive) | Cc1ccc(Nc2nc(-c3ccc(O)cc3O)cs2)cc1C |
| > 100 µM (inactive) | O=S(=O)(c1ccc(NC(=S)N/N=C/c2ccc(O)c(O)c2)cc1)N1CCOCC1 |
| > 100 µM (inactive) | Cc1cccc(NC(=S)NN=Cc2ccc3c(c2)OCO3)c1 |
| > 100 µM (inactive) | O=S(=O)(Nc1ncccn1)c1ccc(NC(=S)NCCC(c2ccccc2)c2ccccc2)cc1 |
| 11.6 µM | Oc1ccc(Nc2nc(-c3ccc(O)c(O)c3)cs2)cc1 |
| > 100 µM (inactive) | Cc1cccc(C)c1NC(=S)N/N=C/c1ccc(O)c(O)c1O |
| > 100 µM (inactive) | Cn1c(=S)n(N=Cc2ccc3c(c2)OCO3)c2ccccc21 |
| > 100 µM (inactive) | COc1cc(/C=N/N=C2/SCC(=O)N2c2ccc(O)cc2)ccc1O |
| 76 µM | O=[N+]([O-])c1ccccc1NC(=S)NN=Cc1ccc(O)c(O)c1 |

| IC50 | Structure (SMILES) |
| --- | --- |
| > 100 µM (inactive) | Cc1ccc(Nc2nc(-c3ccc(O)cc3O)cs2)cc1 |
| > 100 µM (inactive) | CCOc1cc(C=NNC(=S)NC2CCCCC2)ccc1O |
| > 100 µM (inactive) and 96.6 µM | Cc1c(Cl)cccc1Nc1nc(-c2ccc(O)c(O)c2)cs1 |
| > 100 µM (inactive) | COc1cc(C=NN=C2SC(CC(=O)O)C(=O)N2c2ccc(O)cc2)ccc1O (stereo unspecified) |
| > 100 µM (inactive) | O=[N+]([O-])c1ccccc1NC(=S)N/N=C/c1ccc(O)c(O)c1O |
| > 100 µM (inactive) | Oc1ccc(-c2csc(Nc3ccc(F)cc3)n2)cc1O |
| > 100 µM (inactive) | Cc1ccc(Nc2nc(-c3ccc(O)c(O)c3)cs2)cc1F |
| > 100 µM (inactive) | CCOc1ccc(Nc2nc(-c3ccc(O)c(O)c3)cs2)cc1 |
| > 100 µM (inactive) | COc1ccc(C=NNC(=S)Nc2ccccc2[N+](=O)[O-])cc1O |
| > 100 µM (inactive) | O=S(=O)(c1ccc(NC(=S)N/N=C/c2ccc(O)c(O)c2O)cc1)N1CCOCC1 |
| > 100 µM (inactive) | Cc1cccc(Nc2nc(-c3ccc(O)c(O)c3)cs2)c1 |
| 45.1 µM | NS(=O)(=O)c1ccc(Nc2nc(-c3ccc(O)c(O)c3)cs2)cc1 |
| > 100 µM (inactive) | COc1cc(C=NNC(=S)Nc2cccc(S(=O)(=O)N(C)C)c2)ccc1O |
| > 100 µM (inactive) | Cc1ccc(Nc2nc(-c3ccc(O)cc3O)cs2)cc1F |
| > 100 µM (inactive) | CC(=NNC(=S)Nc1ccccc1)c1ccc2c(c1)OCO2 |
| > 100 µM (inactive) | COc1cc(C=NNC(=S)Nc2cccc(S(=O)(=O)N(C)C)c2)cc(OC)c1O |
